Results reported in patent publication US7863014B2 (priority 2001, dated 2011).

Experiments:
Ppnk [1] = biological target: T1, Ppnk (Mycobacterium tuberculosis, UniProt P9WHV7); assay: Effect of NADP and ADP on NADP-producing activity of purified Ppnk; type: biochemical, M. tuberculosis; conditions: various levels of NADP or ADP
Protocol: The NADP-producing activity was assayed in the presence of various levels of NADP (solid circles) or ADP (open circles).
A reaction for producing NADP was performed in a reaction mixture solution (4.0 ml) at 37° C. with shaking. […] After the reaction for 1 hour, 10 μl of the reaction mixture was collected and enzymatically assayed for NADP using isocitrate dehydrogenase (Sigma-Aldrich Japan, Tokyo, Japan). The activity was expressed in μmol/g cells/hour.

Ppnk [2] = biological target: T1, Ppnk

T1 sequence (P9WHV7 whole entry, looked up): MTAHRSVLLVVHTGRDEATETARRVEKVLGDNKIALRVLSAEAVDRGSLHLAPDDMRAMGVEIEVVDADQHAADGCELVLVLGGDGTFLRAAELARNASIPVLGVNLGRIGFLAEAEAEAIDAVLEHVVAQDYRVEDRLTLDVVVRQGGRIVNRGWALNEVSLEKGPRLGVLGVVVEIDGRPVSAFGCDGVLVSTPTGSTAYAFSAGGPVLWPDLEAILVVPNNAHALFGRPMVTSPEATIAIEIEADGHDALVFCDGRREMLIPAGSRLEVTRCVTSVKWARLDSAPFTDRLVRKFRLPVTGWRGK

Row | SMILES | inhibition of polyphosphate-dependent NAD kinase activity of Ppnk (Ppnk [1]) | Mg2+ concentration giving highest activity (Ppnk [2]) | effectiveness among metal ions (Mg2+, Mn2+, Ca2+) (Ppnk [2])
1 | Nc1ncnc2c1ncn2[C@@H]1O[C@H](COP(=O)(O)OP(=O)(O)O)[C@@H](O)[C@H]1O [ADP] | not inhibited | – | –
2 | [Cl-].[Cl-].[Mg+2] [MgCl2] | – | 100 mM | most effective
